In patent US5591741A, “Fungicidal spiroheterocyclic derivatives” (American Cyanamid Company, priority 1993, dated 1997):

What was measured:
Alternaria solani = experiment: Activity against tomato early blight (AS); type: in vivo; conditions: Table VI; tomato seedlings, contact prophylactic foliar spray, 4 days
Protocol: b) Activity against tomato early blight (Alternaria solani; AS) This test measures the contact prophylactic activity of test compounds applied as a foliar spray. Tomato seedlings (cv Outdoor Girl) are grown to the stage at which the second true leaf is expanded. The plants are treated using an automated sprayline as described under (a). Test compounds are applied as solutions or suspensions in a mixture of acetone and water (50:50 v/v) containing 0.04% surfactant ("TWEEN 20"--Trade Mark). After drying the plants are kept for 24 hours in a glasshouse at 20° C. and 40% R.H., followed by inoculation of the leaf upper surfaces with a suspension of A. solani conidia containing 10^4 spores/ml. For 4 days after inoculation plants are kept moist in a humidity compartment at 21° C. Disease is assessed 4 days after inoculation, based on the percentage of leaf surface area covered by lesions when compared with control plants. The extent of disease control in all the above tests is expressed as a rating compared with either an untreated control or a diluent-sprayed-control, according to the criteria: […]

[1] = tested on: Erysiphe graminis f.sp. hordei; experiment: Activity against barley powdery mildew, direct therapeutic (EGT); type: in vivo; conditions: direct therapeutic foliar spray, 600 ppm, up to 7 days
Protocol: (e) Activity against barley powdery mildew (Erysiphe graminis f.sp. hordei; EGT) The test is a direct therapeutic foliar spray. Leaves of barley seedlings, (cv. Golden Promise) at the single leaf stage are inoculated by dusting with mildew conidia one day prior to treatment with the test compound. The inoculated plants are kept overnight at glasshouse ambient temperature (18° C.) and humidity (40%) prior to treatment. The plants are sprayed with the test compound at a dosage of 600 ppm using an automated sprayline as described under (a). After drying, plants are returned to a compartment at 18° C. and 40% humidity for up to 7 days. Assessment is based on the percentage of leaf area covered by sporulation compared with that on leaves of control plants. The extent of disease control in all the above tests is expressed as a rating compared with either an untreated control or a diluent-sprayed-control, according to the criteria: […]

[2] = tested on: Erysiphe graminis f.sp. hordei; experiment: Direct protectant activity against barley powdery mildew (EGP); type: in vivo; conditions: direct protectant foliar spray, 8 days
Protocol: (f) Direct protectant activity against barley powdery mildew (Erysiphe graminis f.sp. hordei; EGP) The test is a direct protectant foliar spray. Leaves of barley seedlings (cv Golden Promise) at the single leaf stage are sprayed with the test compound as described under (a). After drying, the plants are kept for 24 hours in a glasshouse at 18° C. and 40% R.H. Then the plants are inoculated by dusting with mildew conidia and kept at 18° C. and 40% R.H. for 8 days. Assessment is based on the percentage of leaf area covered by sporulation compared with that on leaves of control plants. The extent of disease control in all the above tests is expressed as a rating compared with either an untreated control or a diluent-sprayed-control, according to the criteria: […]

Botrytis cinerea = experiment: Direct protectant activity against broad bean grey mould (BCB); type: in vivo; conditions: direct protectant foliar spray, 600 ppm, 4 days
Protocol: (c) Direct protectant activity against broad bean grey mould (Botrytis cinerea; BCB) The test is a direct protectant foliar spray. The upper surfaces of leaves of broad bean plants with two leaf pairs (cv The Sutton) are sprayed with the test compound at a dosage of 600 ppm using an automated sprayline as described under (a). 24 hours after spraying the leaves are inoculated with an aqueous suspension containing 10^6 conidia/ml. For 4 days after inoculation plants are kept in a high humidity compartment at 22° C. Disease is assessed 4 days after inoculation, based on the percentage of leaf surface area covered by lesions. The extent of disease control in all the above tests is expressed as a rating compared with either an untreated control or a diluent-sprayed-control, according to the criteria: […]

[3] = tested on: Pseudocercosporella herpotrichoides; experiment: Activity against wheat eyespot in-vitro (PHI); type: cell-based; conditions: 10 ppm, 10 days, 20° C., mycelial growth
Protocol: (h) Activity against wheat eyespot in-vitro (Pseudocercosporella herpotrichoides; pHI) This test measures the in vitro activity of compounds against the fungus causing wheat eyespot. The test compound is dissolved or suspended in acetone and is added into 4 ml aliquots of half strength Potato Dextrose Broth (PDB) dispended in 25-compartment petri dishes to give a final concentration of 10ppm. The fungal inoculum consists of mycelial fragments of P. herpotrichoides grown in half strength PDB in shaken flasks and added to the broth to provide 5×10^4 fragments/ml broth. Petri dishes are incubated at 20° C. for 10 days until the assessment of mycelial growth. The extent of disease control in all the above tests is expressed as a rating compared with either an untreated control or a diluent-sprayed-control, according to the criteria: […]

Pyricularia oryzae = type: in vivo; conditions: rice seedlings, direct therapeutic foliar spray, 600 ppm, 4-5 days
Rhizoctonia solani = experiment: Activity against Rhizoctonia in-vitro (RSI); type: cell-based; conditions: 10 ppm, 10 days, 20° C., mycelial growth
Protocol: (i) Activity against Rhizoctonia in-vitro (Rhizoctonia solani: RSI) This test measures the in-vitro activity of compounds against R. solani that causes stem and root rots. The test compound in acetone is added into 4 ml aliquots of half strength Potato Dextrose Broth dispensed in 25-compartment petri dishes to give final concentrations of 10 ppm. The fungal inoculum consists of mycelial fragments of R. solani growth in half strength PDB in shaken culture flasks and added to the broth to provide 5×10^4 fragments/ml broth. Petri dishes are incubated at 20° C. for 10 days until the assessment of mycelial growth. The extent of disease control in all the above tests is expressed as a rating compared with either an untreated control or a diluent-sprayed-control, according to the criteria: […]

Leptosphaeria nodorum = experiment: Activity against wheat leafspot (LN); type: in vivo; conditions: direct therapeutic foliar spray, 600 ppm, 6-8 days
Protocol: (d) Activity against wheat leafspot (Leptosphaeria nodorum; LN.) The test is a direct therapeutic foliar spray. Leaves of wheat plants (cv Norman), at the single leaf stage, are inoculated by spraying with an aqueous suspension containing 1.5×10^6 conidia/ml. The inoculated plants are kept for 24 hours in a high humidity compartment prior to treatment. The plants are sprayed with a solution of the test compound at a dosage of 600 ppm using an automated sprayline as described under (a). After drying, the plants are kept for 6-8 days at 22° C. and moderate humidity (70%). Assessment is based on the density of lesions per leaf compared with that on leaves of control plants. The extent of disease control in all the above tests is expressed as a rating compared with either an untreated control or a diluent-sprayed-control, according to the criteria: […]

Phytophthora infestans = type: in vivo; conditions: tomato, direct protectant foliar spray
Venturia inaequalis = experiment: Activity against apple scab in-vitro (VII); type: cell-based; conditions: 10 ppm, 10 days, 20° C., mycelial growth
Protocol: (j) Activity against apple scab in-vitro (Venturia inaequalis: VII) This test measures the in-vitro activity of compounds against V. inaequalis that causes apple scab. The test compound in acetone is added into 4 ml aliquots of half strength Potato Dextrose Broth dispensed in 25-compartment petri dishes to give final concentrations of 10 ppm. The fungal inoculum consists of mycelial fragments and spores of V. inaequalis grown on malt agar and added to the broth to provide 5×10^4 propagules/ml broth. Petri dishes are incubated at 20° C. for 10 days until the assessment of mycelial growth. The extent of disease control in all the above tests is expressed as a rating compared with either an untreated control or a diluent-sprayed-control, according to the criteria: […]

Plasmopara viticola = experiment: Antisporulant activity against vine downy mildew (PVA); type: in vivo; conditions: vine leaves, antisporulant foliar spray, 600 ppm, 750 l/ha
Protocol: (a) Antisporulant activity against vine downy mildew (Plasmopara viticola; PVA) The test is a direct antisporulant one using a foliar spray. The lower surfaces of leaves of whole vine plants (cv Cabernet Sauvignon), approximately 8 cm high, are inoculated by spraying with an aqueous suspension containing 5×10^4 zoosporangia/ml. The inoculated plants are kept for 24 hours at 21° C. in a high humidity compartment, then 24 hours at glasshouse ambient temperature and humidity. Infected leaves are sprayed on their lower surfaces with a solution of active material in 1:1 water/acetone containing 0.04% "TWEEN 20" (Trade Mark; a polyoxyethylene sorbitan ester surfactant). Plants are treated using an automated sprayline with an atomising nozzle. The concentration of the compound is 600 ppm, and the spray volume is 750 l/ha. After spraying, the plants are returned to normal glasshouse conditions for 96 hours and are then transferred to the high humidity compartment for 24 hours to induce sporulation. Assessment is based on the percentage of the leaf area covered by sporulation compared with that on control leaves. The extent of disease control in all the above tests is expressed as a rating compared with either an untreated control or a diluent-sprayed-control, according to the criteria: […]

Row | Compound | disease control rating AS (Alternaria solani) | disease control rating EGT [1] | disease control rating EGP [2] | disease control rating BCB (Botrytis cinerea) | disease control rating PHI [3] | disease control rating PO (Pyricularia oryzae) | disease control rating RSI (Rhizoctonia solani) | disease control rating LN (Leptosphaeria nodorum) | disease control rating PIP (Phytophthora infestans) | disease control rating VII (Venturia inaequalis) | disease control rating PVA (Plasmopara viticola)
1 | CC1CCCC(NC2COC3(CCC(C(C)(C)C)CC3)C2)C1 (stereo not drawn) [Compound 88] | 0 (less than 50% disease control) | 2 (greater than 80% disease control) | 2 (greater than 80% disease control) | 2 (greater than 80% disease control) | 0 (less than 50% disease control) | 0 (less than 50% disease control) | 1 (about 50-80% disease control) | 0 (less than 50% disease control) | 2 (greater than 80% disease control) | 1 (about 50-80% disease control) | 0 (less than 50% disease control)
2 | CCCCN(CCCC)C1COC2(CCC(c3ccccc3)CC2)C1 (stereo not drawn) [Compound 55] | 0 (less than 50% disease control) | 2 (greater than 80% disease control) | 2 (greater than 80% disease control) | 2 (greater than 80% disease control) | 0 (less than 50% disease control) | 0 (less than 50% disease control) | 0 (less than 50% disease control) | 1 (about 50-80% disease control) | 0 (less than 50% disease control) | 1 (about 50-80% disease control) | 0 (less than 50% disease control)
3 | CCCN(CCC1CCCCC1)C1COC2(CCC(C(C)(C)C)CC2)C1 (stereo not drawn) [Compound 119] | 0 (less than 50% disease control) | 2 (greater than 80% disease control) | 2 (greater than 80% disease control) | 0 (less than 50% disease control) | 1 (about 50-80% disease control) | 0 (less than 50% disease control) | 0 (less than 50% disease control) | 0 (less than 50% disease control) | 0 (less than 50% disease control) | 1 (about 50-80% disease control) | 0 (less than 50% disease control)
4 | CCCCc1ccc(NC2COC3(CCC(C(C)(C)C)CC3)C2)cc1 (stereo not drawn) [Compound 25] | 0 (less than 50% disease control) | 0 (less than 50% disease control) | 0 (less than 50% disease control) | 0 (less than 50% disease control) | 0 (less than 50% disease control) | 0 (less than 50% disease control) | 0 (less than 50% disease control) | 0 (less than 50% disease control) | 0 (less than 50% disease control) | 0 (less than 50% disease control) | 0 (less than 50% disease control)
5 | CCCCCCNC1COC2(CCCCC2)C1 (stereo not drawn) [Compound 32] | 0 (less than 50% disease control) | 2 (greater than 80% disease control) | 2 (greater than 80% disease control) | 0 (less than 50% disease control) | 0 (less than 50% disease control) | 0 (less than 50% disease control) | 0 (less than 50% disease control) | 0 (less than 50% disease control) | 0 (less than 50% disease control) | 0 (less than 50% disease control) | 0 (less than 50% disease control)
6 | C1CCC2CN(C3COC4(C3)C3CC5CC(C3)CC4C5)CCC2C1 (stereo not drawn) [Compound 113] | 0 (less than 50% disease control) | 0 (less than 50% disease control) | 1 (about 50-80% disease control) | 1 (about 50-80% disease control) | 0 (less than 50% disease control) | 0 (less than 50% disease control) | 0 (less than 50% disease control) | 0 (less than 50% disease control) | 1 (about 50-80% disease control) | 1 (about 50-80% disease control) | 0 (less than 50% disease control)
